In assay [1] the target is T1, Δ382C (DDase-Δ382C) (Gluconobacter oxydans, UniProt A0A0M5MSC0, E858A).
T1 construct: gene HKD20_12845; C-terminal truncation Met1-Ser902 (domains N1, N2, HLH, A); N-terminal His6 tag (MNHKVHHHHHHIEGRHMEL) kept; E. coli BL21-CodonPlus(DE3)-RIL; 921 residues with tag; dimer 195,604 Da
Briefly: glycosynthase reaction, isomaltotetraose formation by HPAEC-PAD. The assay is classed as biochemical. The note with it: 12.5 mM donor, 50 mM isomaltotriose acceptor, 130 mM sodium acetate pH 4.2, 35 °C.

Assay [2] concerns the target T2, Δ382C (DDase-Δ382C) (Gluconobacter oxydans, UniProt A0A0M5MSC0, E858S).
T2 construct: gene HKD20_12845; C-terminal truncation Met1-Ser902 (domains N1, N2, HLH, A); N-terminal His6 tag (MNHKVHHHHHHIEGRHMEL) kept; E. coli BL21-CodonPlus(DE3)-RIL; 921 residues with tag; dimer 195,604 Da
Described as above. As to conditions: 12.5 mM donor, 50 mM isomaltotriose acceptor, 130 mM sodium acetate pH 4.2, 35 °C. The class given is biochemical.

T1 sequence (A0A0M5MSC0 entry or part of it E858A): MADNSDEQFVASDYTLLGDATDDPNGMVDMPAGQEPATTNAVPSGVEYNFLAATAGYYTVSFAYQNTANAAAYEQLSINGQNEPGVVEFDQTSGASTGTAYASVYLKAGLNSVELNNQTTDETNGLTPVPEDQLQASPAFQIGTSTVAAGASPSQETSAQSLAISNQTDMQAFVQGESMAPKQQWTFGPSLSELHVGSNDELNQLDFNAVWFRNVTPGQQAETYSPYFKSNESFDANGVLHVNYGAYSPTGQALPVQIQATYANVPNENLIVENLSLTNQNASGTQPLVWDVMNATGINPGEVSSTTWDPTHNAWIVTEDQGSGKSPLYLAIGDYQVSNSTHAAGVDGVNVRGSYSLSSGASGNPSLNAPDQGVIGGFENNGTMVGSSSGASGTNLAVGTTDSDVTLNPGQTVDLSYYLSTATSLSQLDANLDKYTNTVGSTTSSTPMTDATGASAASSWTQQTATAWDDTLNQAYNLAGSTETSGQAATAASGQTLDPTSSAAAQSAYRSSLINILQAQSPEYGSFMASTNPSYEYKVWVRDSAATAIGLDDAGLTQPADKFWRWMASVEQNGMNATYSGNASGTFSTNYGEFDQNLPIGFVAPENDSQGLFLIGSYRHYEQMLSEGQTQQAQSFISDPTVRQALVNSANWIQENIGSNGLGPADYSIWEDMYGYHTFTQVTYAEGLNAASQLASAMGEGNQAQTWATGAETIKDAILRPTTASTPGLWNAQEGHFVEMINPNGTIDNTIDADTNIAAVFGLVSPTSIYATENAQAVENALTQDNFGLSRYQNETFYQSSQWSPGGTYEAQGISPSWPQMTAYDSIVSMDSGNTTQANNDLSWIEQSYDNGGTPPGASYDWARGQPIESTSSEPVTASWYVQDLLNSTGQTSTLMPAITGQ
T2 sequence (A0A0M5MSC0 entry or part of it E858S): as the sequence (A0A0M5MSC0 entry or part of it E858A) above, with A858S counted along it

Turning to `OC[C@H]1O[C@@H](F)[C@H](O)[C@@H](O)[C@@H]1O` [β-GF, β-D-glucosyl fluoride], the “glycosynthase reaction, isomaltotetraose formation by HPAEC-PAD” value at Δ382C (DDase-Δ382C) [1] was “isomaltotetraose (IG4) was produced from β-D-glucosyl fluoride (β-GF) and IG3 by E858A and E858S”; at Δ382C (DDase-Δ382C) [2], “isomaltotetraose (IG4) was produced from β-D-glucosyl fluoride (β-GF) and IG3 by E858A and E858S”.

These data come from article PMC12446779, “Structural basis of transglucosylation in dextran dextrinase, a homolog of anomer-inverting GH15 glucoside hydrolases” (The Journal of Biological Chemistry, 2025).
